This note sets out measurements from ChEMBL document CHEMBL5137114, “Discovery of IHMT-MST1-58 as a Novel, Potent, and Selective MST1 Inhibitor for the Treatment of Type 1/2 Diabetes” (J Med Chem, 2022).

Data set [1] in a line: Cmax in Sprague-Dawley rat at 1 mg/kg, iv measured up to 12 hrs by LC-MS/MS analysis. The class given is ADME, organism-based. Conditions: in vivo. Further details: time < 12 hrs, dose 1 mg/kg, route iv.
Data set [2] concerns Serine/threonine-protein kinase 4 (Rattus norvegicus). The experiment in a line: Inhibition of IL-1beta[…]-stimulated MST1 in rat RIN-m5F cells assessed as reduction in MOB1 autophosphorylation incubated for 12 hrs by Western blotting analysis. Conditions: dose 0.1-10 µM, DDE = dose-dependent effect.
Data set [3] concerns Mus musculus. The experiment in a line: Antidiabetic activity in 12 to 14 hrs fasted multi low dose STZ-induced C57BL/6J mouse model of type 1 diabetes assessed as reduction on blood glucose at 50 mg/kg, po qd pretreated with compound followed by glucose challenge and measured upto 180 mins by IPGTT assay. Format: functional, organism-based.
Data set [4] deals with Mus musculus. The experiment in a line: Antidiabetic activity against 8 hrs fasted multi low dose STZ-induced C57BL/6J mouse model of type 1 diabetes assessed as decrease in fasting blood glucose level at 50 mg/kg, po administered measured immediately (reference value: 19.3 mmol/L). Format: functional.
Data set [5] concerns RAW264.7. The experiment in a line: Inhibition of MST1 in mouse RAW264.7 cells assessed as reduction in H2O2-stimulated MOB1 phosphorylation at T35 residue preincubated for 2 hrs followed by H2O2 addition for 30 mins by Western blotting analysis. The class given is cell-based. Conditions: dose 0.1-10 µM, time 2.5 hrs, DDE = dose-dependent effect. On the technique in general: Immunoblotting shows a protein as a band on a membrane.

Data set [6] addresses T1, Serine/threonine-protein kinase 3 (Homo sapiens, UniProt Q13188).
T1 sequence (Q13188 whole entry): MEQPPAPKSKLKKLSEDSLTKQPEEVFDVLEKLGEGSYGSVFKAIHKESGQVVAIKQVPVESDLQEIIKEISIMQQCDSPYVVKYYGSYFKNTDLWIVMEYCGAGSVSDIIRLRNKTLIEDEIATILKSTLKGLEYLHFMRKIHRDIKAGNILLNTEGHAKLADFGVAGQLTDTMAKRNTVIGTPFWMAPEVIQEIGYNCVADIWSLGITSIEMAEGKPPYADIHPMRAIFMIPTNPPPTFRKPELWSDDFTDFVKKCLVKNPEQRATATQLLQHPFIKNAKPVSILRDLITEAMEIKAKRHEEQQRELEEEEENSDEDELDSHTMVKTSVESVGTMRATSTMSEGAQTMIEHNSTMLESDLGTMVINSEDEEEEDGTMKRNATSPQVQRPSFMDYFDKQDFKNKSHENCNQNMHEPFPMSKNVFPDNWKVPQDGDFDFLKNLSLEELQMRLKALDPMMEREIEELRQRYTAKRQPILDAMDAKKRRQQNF
As to the kind of experiment: Inhibition of recombinant full length N-terminal GST -tagged human MST2 expressed in baculovirus infected Sf9 insect cells using KKSRGDYMTMQIG as substrate incubated for 1 hr in presence of ATP by ADP-Glo luminescent assay. (In general: ADP-Glo first removes unused ATP, then detects ADP through luciferase.)

Data set [7] in a line: AUC (0 to t) in mouse at 10 mg/kg, po measured up to 24 hrs by LC-MS/MS analysis. Conditions: in vivo. Further details: time < 24 hrs, dose 10 mg/kg, route po. Format: ADME, organism-based.
Data set [8] can be described thus: Cmax in Sprague-Dawley rat at 10 mg/kg, po measured up to 24 hrs by LC-MS/MS analysis. The class given is ADME, organism-based. Also noted: dose 10 mg/kg, time < 24 hrs, route po. Conditions: in vivo.
Data set [9] has as its system Mus musculus. As to the kind of experiment: Antidiabetic activity against high fat diet-STZ-induced C57BL/6J mouse model of type 2 diabetes assessed as improvement in water consumption at 50 mg/kg, po qd administered upto 106 days in presence of metformin. The class given is functional, organism-based. Conditions: time <= 106.0 day.
For data set [10], the system named is RAW264.7. As to the kind of experiment: Inhibition of MST1 in mouse RAW264.7 cells assessed as reduction in H2O2-stimulated MST1/MST2 autophosphorylation at T183/T180 residues preincubated for 2 hrs followed by H2O2 addition for 30 mins by Western blotting analysis. The class given is cell-based. Conditions: dose 0.1-10 µM, time 2.5 hrs, DDE = dose-dependent effect.

Data set [11] relates to Mus musculus. As to the kind of experiment: Antidiabetic activity against multi low dose STZ-induced C57BL/6J mouse model of type 1 diabetes assessed as food intake at 50 mg/kg, po administered for 1 to 2 days (reference value: 4.5 g/day). The class given is functional. Conditions: time 1-2 day.
Data set [12] has as its system Serine/threonine-protein kinase 4 (Rattus norvegicus). As to the kind of experiment: Inhibition of INF-gamma-stimulated MST1 in rat RIN-m5F cells assessed as reduction in MOB1 autophosphorylation incubated for 12 hrs by Western blotting analysis. Conditions: dose 0.1-10 µM, DDE = dose-dependent effect.
For data set [13] the test system is unchanged. As to the kind of experiment: Inhibition of TNF-alpha-stimulated MST1 phosphorylation in rat RIN-m5F cells incubated for 12 hrs by Western blotting analysis. Conditions: dose 0.1-10 µM, DDE = dose-dependent effect.
Data set [14] is described as follows: Toxicity in multi low dose STZ-induced C57BL/6J mouse model of type 1 diabetes assessed as effect on pancreas morphology at 50 mg/kg, po qd by H and E staining based analysis. The class given is organism-based. Conditions: in vivo.
For data set [15], the system named is Mus musculus. The experiment in a line: Antidiabetic activity against multi low dose STZ-induced C57BL/6J mouse model of type 1 diabetes assessed as food intake at 50 mg/kg, po administered for 78 to 79 days in presence of metformin (reference value: 4.7 g/day). The class given is functional. Conditions: time 78-79 day.
Data set [16] relates to Mus musculus. As to the kind of experiment: Antidiabetic activity against 12 hrs fasted high fat diet-STZ-induced C57BL/6J mouse model of type 2 diabetes assessed as decrease in fasting blood glucose level at 50 mg/kg, po qd administered measured immediately in presence of metformin (reference value: 20.3 mmol/L). The class given is functional.
The target of data set [17] is T1, Serine/threonine-protein kinase 3. As to the kind of experiment: Binding affinity to wild-type human partial length MST2 (D17 to E318 residues) expressed in bacterial expression system by Kinomescan method.
The subject of a further data set is RIN-m5F. As to the kind of experiment: Protection against IFN-gamma-induced cell damage in rat RIN-m5F cells assessed as increase in cell survival at 0.03 to 0.3 uM incubated for 48 hrs by Cell Titer-Glo assay. The class given is functional, cell-based. Conditions: dose 0.03-0.3 µM. (In general: In ATP-based viability assays light output follows the ATP content of the culture.)

For data set [18], the target named is T2, Serine/threonine-protein kinase 4 (Homo sapiens, UniProt Q13043).
T2 sequence (Q13043 whole entry): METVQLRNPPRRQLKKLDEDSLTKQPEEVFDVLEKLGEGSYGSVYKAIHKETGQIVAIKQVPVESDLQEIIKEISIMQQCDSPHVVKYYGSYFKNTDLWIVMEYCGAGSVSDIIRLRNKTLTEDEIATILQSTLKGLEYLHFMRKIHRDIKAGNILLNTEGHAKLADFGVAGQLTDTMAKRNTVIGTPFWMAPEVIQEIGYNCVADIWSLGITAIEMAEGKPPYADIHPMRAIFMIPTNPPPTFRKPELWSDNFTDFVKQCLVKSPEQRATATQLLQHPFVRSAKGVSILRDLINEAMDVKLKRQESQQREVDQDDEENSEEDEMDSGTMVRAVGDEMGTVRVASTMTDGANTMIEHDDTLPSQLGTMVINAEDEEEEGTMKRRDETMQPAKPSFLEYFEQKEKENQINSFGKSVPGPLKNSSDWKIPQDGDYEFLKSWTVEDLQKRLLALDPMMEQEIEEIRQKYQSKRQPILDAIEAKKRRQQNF
As to the kind of experiment: Inhibition of recombinant full length N-terminal GST -tagged human MST1 expressed in baculovirus infected Sf9 insect cells using KKSRGDYMTMQIG as substrate incubated for 1 hr in presence of ATP by ADP-Glo luminescent assay.

Data set [19] concerns Mus musculus. The experiment in a line: Antidiabetic activity against high fat diet-STZ-induced C57BL/6J mouse model of type 2 diabetes assessed as improvement in food intake at 50 mg/kg, po qd administered upto 106 days in presence of metformin. Format: functional, organism-based. Conditions: time <= 106.0 day.

Molecules are shown by their SMILES. Active and inactive are the calls of the source. The calls are words filed in the database; no cut-off is given here.

For `Cc1ccccc1C1C(=O)N(C)c2cnc(Nc3ccc(S(N)(=O)=O)cc3)nc2N1C` (stereo not given), the Cmax in [1] is 944 ng/mL; in data set [8] it was 1720 ng/mL. Besides, the inhibition result (in [2]; in the data set on RAW264.7 [5]; in the data set on RAW264.7 [10]; in [12]; in data set [13]) was “Dde” each time. Also, the outcome in the data set on Mus musculus [3], in the data set with Mus musculus [9], with RIN-m5F and in the data set on Mus musculus [19] was Active. Besides, the Activity is recorded as 19.4 mmol/L with Mus musculus [4]; 4.5 g/day in the data set with Mus musculus [11]; “Non-Toxic” in data set [14]; 4.1 g/day in the data set on Mus musculus [15]; 20.3 mmol/L with Mus musculus [16]. Also, the figures for the IC50 in data set [6] and in data set [18] were 652 nM and 23 nM, respectively. Besides, the AUC(0-t) at 24 h in [7] is 5580 ng·h/mL. Further, in data set [17], the affinity, expressed as Kd, was 2700 nM.

By Cmax is commonly meant the highest concentration seen after dosing. As usually defined, the IC50 is the concentration at which inhibition is half-maximal. Broadly, the AUC(0-t) is exposure summed from dosing to a finite time, without extrapolation to infinity. A higher AUC(0-t) goes with high exposure. A word on the Kd: it is a measure of binding affinity in units of concentration. A high value points to a looser complex.
